Biological target: HPK1 (Homo sapiens (Human), UniProt Q92918)
Experiment: HPK1 Lantha binding assay ("Lanth")
Settings: binding assays; Morrison Ki fit
Procedure, shortened: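 TR-FRET binding competition using 2 nM HPK1, 2 nM Eu-anti-GST antibody and 15 nM Tracer222 at 23 °C. Compound was incubated 1 h with enzyme and antibody, then 1 h after tracer addition, with an 11-point 5-fold dilution series. Ki obtained from a Morrison fit that corrects for tracer concentration and Kd.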

HPK1, sequence (Q92918 1-346 limits assumed): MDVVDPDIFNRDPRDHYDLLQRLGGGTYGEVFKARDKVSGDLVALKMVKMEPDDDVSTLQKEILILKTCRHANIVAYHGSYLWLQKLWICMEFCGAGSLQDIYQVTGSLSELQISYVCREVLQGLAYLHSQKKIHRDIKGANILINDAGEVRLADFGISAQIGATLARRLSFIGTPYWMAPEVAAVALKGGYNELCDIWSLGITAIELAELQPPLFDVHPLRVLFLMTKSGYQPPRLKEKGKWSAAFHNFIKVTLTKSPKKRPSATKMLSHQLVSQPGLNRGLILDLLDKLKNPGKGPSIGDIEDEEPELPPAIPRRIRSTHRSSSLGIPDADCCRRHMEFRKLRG

Structure (SMILES)	Ki [nM]
CN(C)C(=O)c1c(N)ccc(-c2cnc3c(c2Cl)[C@]2(CC[C@](O)(CC#N)C2)CN3)c1F [Compound 109a, 6-Amino-3-((1R,3R)-4′-chloro-3-(cyanomethyl)-3-hydroxy-1′,2′-dihydrospiro[cyclopentane-1,3′-pyrrolo[2,3-b]pyridin]-5′-yl)-2-fluoro-N,N-dimethylbenzamide]	25.3
CN(C)C(=O)c1c(N)ccc(-c2cnc3c(c2Cl)C2(CCC(=CC(N)=O)C2)CN3)c1F (stereo not shown) [Compound 110, 6-Amino-3-(3-(2-amino-2-oxoethylidene)-4′-chloro-1′,2′-dihydrospiro[cyclopentane-1,3′-pyrrolo[2,3-b]pyridin]-5′-yl)-2-fluoro-N,N-dimethylbenzamide]	4.5
CN(C)C(=O)c1c(N)ccc(-c2cnc3c(c2)[C@]2(CC[C@H](O)CC2)CN3)c1F [Compound 111a, 6-Amino-2-fluoro-3-((1s,4s)-4-hydroxy-1′,2′-dihydrospiro[cyclohexane-1,3′-pyrrolo[2,3-b]pyridin]-5′-yl)-N,N-dimethylbenzamide]	48.3
CN(C)C(=O)c1c(N)ccc(-c2cnc3c(c2)[C@]2(CC[C@@H](O)CC2)CN3)c1F [Compound 111b, 6-Amino-2-fluoro-3-((1r,4r)-4-hydroxy-1′,2′-dihydrospiro[cyclohexane-1,3′-pyrrolo[2,3-b]pyridin]-5′-yl)-N,N-dimethylbenzamide]	172
CN(C)C(=O)c1c(N)ccc(-c2cnc3c(c2Cl)C2(C=C(c4cccnc4)CC2)CN3)c1F (stereo not shown) [Compound 112, 6-Amino-3-(4′-chloro-3-(pyridin-3-yl)-1′,2′-dihydrospiro[cyclopentane-1,3′-pyrrolo[2,3-b]pyridin]-2-en-5′-yl)-2-fluoro-N,N-dimethylbenzamide]	6.6
COc1c(-c2ccc(N)c(C(=O)N(C)C)c2F)cnc2c1[C@]1(CC[C@@H](O)CC1)CN2 [Compound 113a, 6-Amino-2-fluoro-3-((1r,4r)-4-hydroxy-4′-methoxy-1′,2′-dihydrospiro[cyclohexane-1,3′-pyrrolo[2,3-b]pyridin]-5′-yl)-N,N-dimethylbenzamide]	39
COc1c(-c2ccc(N)c(C(=O)N(C)C)c2F)cnc2c1[C@]1(CC[C@H](O)CC1)CN2 [Compound 113b, 6-Amino-2-fluoro-3-((1s,4s)-4-hydroxy-4′-methoxy-1′,2′-dihydrospiro[cyclohexane-1,3′-pyrrolo[2,3-b]pyridin]-5′-yl)-N,N-dimethylbenzamide]	15.1
CN(C)C(=O)c1c(N)ccc(-c2cnc3c(c2Cl)[C@]2(CCNC(=O)C2)CN3)c1F [Compound 122a, (R)-6-Amino-3-(4′-chloro-2-oxo-1′,2′-dihydrospiro[piperidine-4,3′-pyrrolo[2,3-b]pyridin]-5′-yl)-2-fluoro-N,N-dimethylbenzamide]	304
CN(C)C(=O)c1c(N)ccc(-c2cnc3c(c2Cl)[C@@]2(CCNC(=O)C2)CN3)c1F [Compound 122b, (S)-6-Amino-3-(4′-chloro-2-oxo-1′,2′-dihydrospiro[piperidine-4,3′-pyrrolo[2,3-b]pyridin]-5′-yl)-2-fluoro-N,N-dimethylbenzamide]	26
CN(C)C(=O)c1c(N)ccc(-c2cnc3c(c2Cl)C2(CCC(CC#N)C2)CN3)c1F (stereo not shown) [Compound 130, 6-Amino-3-(4′-chloro-3-(cyanomethyl)-1′,2′-dihydrospiro[cyclopentane-1,3′-pyrrolo[2,3-b]pyridin]-5′-yl)-2-fluoro-N,N-dimethylbenzamide]	4
CN(Cc1cnn(C)c1)C(=O)c1cccc(-c2cnc3c(c2)C2(CC2)CN3)c1F [Compound 136, 3-(1′,2′-dihydrospiro[cyclopropane-1,3′-pyrrolo[2,3-b]pyridin]-5′-yl)-2-fluoro-N-methyl-N-((1-methyl-1H-pyrazol-4-yl)methyl)benzamide]	15.9
CCN(C(=O)c1cccc(-c2cnc3c(c2)C2(CC2)CN3)c1F)C1CCC1 [Compound 137, N-cyclobutyl-3-(1′,2′-dihydrospiro[cyclopropane-1,3′-pyrrolo[2,3-b]pyridin]-5′-yl)-N-ethyl-2-fluorobenzamide]	34.1
CN(CCC#N)C(=O)c1cccc(-c2cnc3c(c2)C2(CC2)CN3)c1F [Compound 138, N-(2-cyanoethyl)-3-(1,2′-dihydrospiro[cyclopropane-1,3′-pyrrolo[2,3-b]pyridin]-5′-yl)-2-fluoro-N-methylbenzamide]	38.6
CC(C)C1CN(C(=O)c2cccc(-c3cnc4c(c3)C3(CC3)CN4)c2F)C1 [Compound 139, (3-(1′,2′-dihydrospiro[cyclopropane-1,3′-pyrrolo[2,3-b]pyridin]-5′-yl)-2-fluorophenyl)(3-isopropylazetidin-1-yl)methanone]	120
CN(C(=O)c1cccc(-c2cnc3c(c2)C2(CC2)CN3)c1F)c1cnn(C)c1 [Compound 141, 3-(1′,2′-dihydrospiro[cyclopropane-1,3′-pyrrolo[2,3-b]pyridin]-5′-yl)-2-fluoro-N-methyl-N-(1-methyl-1H-pyrazol-4-yl)benzamide]	126
CC1CN(C(=O)c2cccc(-c3cnc4c(c3)C3(CC3)CN4)c2F)C1 [Compound 142, (3-(1′,2′-dihydrospiro[cyclopropane-1,3′-pyrrolo[2,3-b]pyridin]-5′-yl)-2-fluorophenyl)(3-methylazetidin-1-yl)methanone]	116
CN(C)C(=O)c1c(N)ccc(-c2cnc3c(c2Cl)[C@]2(CC[C@@H](O)CC2)CN3)c1F [Compound 144a, 6-Amino-3-((1r,4r)-4′-chloro-4-hydroxy-1′,2′-dihydrospiro[cyclohexane-1,3′-pyrrolo[2,3-b]pyridin]-5′-yl)-2-fluoro-N,N-dimethylbenzamide]	39.6
CN(C)C(=O)c1c(N)ccc(-c2cnc3c(c2Cl)[C@]2(CC[C@H](O)CC2)CN3)c1F [Compound 144b, 6-Amino-3-((1s,4s)-4′-chloro-4-hydroxy-1′,2′-dihydrospiro[cyclohexane-1,3′-pyrrolo[2,3-b]pyridin]-5′-yl)-2-fluoro-N,N-dimethylbenzamide]	9.98
CN(C)C(=O)c1c(N)ccc(-c2cnc3c(c2Cl)C2(CCC(c4cccnc4)C2)CN3)c1F (stereo not shown) [Compound 145, 6-Amino-3-(4′-chloro-3-(pyridin-3-yl)-1′,2′-dihydrospiro[cyclopentane-1,3′-pyrrolo[2,3-b]pyridin]-5′-yl)-2-fluoro-N,N-dimethylbenzamide]	9.37
CN(C)C(=O)c1c(N)ccc(-c2cnc3c(c2Cl)[C@]2(CC[C@@H](c4cccnc4)C2)CN3)c1F [Compound 145a, 6-Amino-3-((1R,3R)-4′-chloro-3-(pyridin-3-yl)-1′,2′-dihydrospiro[cyclopentane-1,3′-pyrrolo[2,3-b]pyridin]-5′-yl)-2-fluoro-N,N-dimethylbenzamide]	9.94
CN(C)C(=O)c1c(N)ccc(-c2cnc3c(c2Cl)[C@]2(CC[C@H](c4cccnc4)C2)CN3)c1F [Compound 145c, 6-Amino-3-((1R,3S)-4′-chloro-3-(pyridin-3-yl)-1′,2′-dihydrospiro[cyclopentane-1,3′-pyrrolo[2,3-b]pyridin]-5′-yl)-2-fluoro-N,N-dimethylbenzamide]	10.4
CN(C)C(=O)c1c(N)ccc(-c2cnc3c(c2Cl)[C@@]2(CC[C@@H](c4cccnc4)C2)CN3)c1F [Compound 145d, 6-Amino-3-((1S,3R)-4′-chloro-3-(pyridin-3-yl)-1′,2′-dihydrospiro[cyclopentane-1,3′-pyrrolo[2,3-b]pyridin]-5′-yl)-2-fluoro-N,N-dimethylbenzamide]	19.9

— patent US12208088B2 (Genentech, Inc., priority 2018, dated 2025)
